Laboratory results: patent publication US20260325561A1, “4'-SUBSTITUTED NUCLEOSIDES AND NUCLEOTIDES AS ANTIVIRAL AGENTS” (THE SCRIPPS RESEARCH INSTITUTE, priority 2023, published 2026)

Columns and labels:
DENV-2 = test: microbe, parasite or virus in culture; assay type: cell-based, DENV-2 16681; settings: Dengue virus, DENV2, HepG2, 24 h, read-out: DENV-2 / HepG2 EC50
SARS-CoV-2 = test: microbe, parasite or virus in culture; assay type: cell-based, SARS-CoV-2 strain USA-WA1/2020; settings: Severe acute respiratory syndrome coronavirus 2, HeLa-ACE2, 24 h, read-out: SARS-CoV-2 / HeLa-ACE2 EC50
CHIKV = test: microbe, parasite or virus in culture; assay type: cell-based, CHIKV strain 181/25; settings: Chikungunya virus, HepG2, 24 h, read-out: CHIKV / HepG2 EC50
in vitro [1] = settings: human, hepg2 cells
in vitro [2] = settings: human, hela-ace2 cells
RSV A2 = test: microbe, parasite or virus in culture; assay type: cell-based; settings: human respiratory syncytial virus, HEp-2, 72 h, read-out: RSV A2 / Hep2 EC50
HRV 14 = test: microbe, parasite or virus in culture; assay type: cell-based, Human Rhinovirus 14 strain 1059; settings: Rhinovirus B, H1-HeLa, 48 h, read-out: HRV / H1 HeLa B 14 EC50
ZIKV = test: microbe, parasite or virus in culture; assay type: cell-based, ZIKV MR766; settings: Zika virus, HepG2, 24 h, read-out: ZIKV / HepG2 EC50
YFV = test: microbe, parasite or virus in culture; assay type: cell-based, YFV strain 17D; settings: Yellow fever virus, HepG2, 24 h, read-out: YFV / HepG2 EC50
in vitro [3] = settings: human, hep2 cells
in vitro [4] = settings: human, h1 hela cells
HRV 16 = test: microbe, parasite or virus in culture; assay type: cell-based, Human Rhinovirus 16 strain 11757; settings: Rhinovirus A, H1-HeLa, 48 h, read-out: HRV / H1 HeLa A16 EC50
HCoV-OC43 = test: microbe, parasite or virus in culture; assay type: cell-based, Human Coronavirus; settings: Betacoronavirus 1, OC43, HCT-8, 48 h, read-out: HCoV-OC43/HCT-8 EC50
HCoV-229E = test: microbe, parasite or virus in culture; assay type: cell-based; settings: Human coronavirus 229E, MRC5, 120 h, read-out: HCoV-229E/MRC5 EC50
HCMV = test: HCMV/HFF antiviral assay; assay type: cell-based; settings: Human betaherpesvirus 5, HFF
Cytotoxicity, HFF = assay type: cell-based; settings: human, hff cells; read-out: HCMV/HFF CC50
in vitro [5] = settings: human, hct-8 cells
in vitro [6] = settings: human, mrc5 cells

SMILES	EC50 (DENV-2)	EC50 (SARS-CoV-2)	EC50 (CHIKV)	CC50 at 72 h (in vitro [1])	CC50 at 24 h (in vitro [2])	EC50 (RSV A2)	EC50 (HRV 14)	EC50 (ZIKV)	EC50 (YFV)	CC50 (in vitro [3])	CC50 (in vitro [4])	EC50 (HRV 16)	EC50 (HCoV-OC43)	EC50 (HCoV-229E)	EC50 (HCMV)	CC50 (Cytotoxicity, HFF)	CC50 (in vitro [5])	CC50 (in vitro [6])
[N-]=[N+]=N[C@]1(CO)O[C@@H](n2ccc3c(N)ncnc32)[C@H](O)[C@@H]1O [Example 2, (2R,3S,4R,5R)-5-(4-amino-7H-pyrrolo[2,3-d]pyrimidin-7-yl)-2-azido-2-(hydroxymethyl)tetrahydrofuran-3,4-diol]	> 10 µM	> 10 µM	> 10 µM	> 99 µM	> 99 µM	–	–	–	–	–	–	–	–	–	–	–	–	–
OC[C@]1(F)O[C@@H](n2ccc3c(Cl)ncnc32)[C@H](O)[C@@H]1O [Example 5, (2R,3S,4R,5R)-5-(4-chloro-7H-pyrrolo[2,3-d]pyrimidin-7-yl)-2-fluoro-2-(hydroxymethyl)tetrahydrofuran-3,4-diol]	0.1 to 1 µM	> 10 µM	–	> 99 µM	> 99 µM	> 10 µM	1 to 10 µM	1 to 10 µM	1 to 10 µM	> 99 µM	> 99 µM	–	–	–	–	–	–	–
NC(=O)c1cn([C@@H]2O[C@](F)(CO)[C@@H](O)[C@H]2O)c2ncnc(N)c12 [Example 14, 4-amino-7-((2R,3R,4S,5S)-5-fluoro-3,4-dihydroxy-5-(hydroxymethyl)tetrahydrofuran-2-yl)-7H-pyrrolo[2,3-d]pyrimidine-5-carboxamide]	< 0.1 µM	0.1 to 1 µM	–	< 1 µM	< 1 µM	< 0.1 µM	> 10 µM	–	–	1 to 10 µM	1 to 10 µM	> 10 µM	0.1 to 1 µM	> 10 µM	0.1 to 1 µM	1 to 10 µM	1 to 10 µM	1 to 10 µM
Nc1ncnc2c1c(F)cn2[C@@H]1O[C@](F)(CO)[C@@H](O)[C@H]1O [Example 15, (2S,3S,4R,5R)-5-(4-amino-5-fluoro-7H-pyrrolo[2,3-d]pyrimidin-7-yl)-2-fluoro-2-(hydroxymethyl)tetrahydrofuran-3,4-diol]	< 0.1 µM	< 0.1 µM	–	< 1 µM	< 1 µM	> 10 µM	> 10 µM	–	–	1 to 10 µM	< 1 µM	< 0.1 µM	< 0.1 µM	0.1 to 1 µM	1 to 10 µM	1 to 10 µM	< 1 µM	1 to 10 µM
Nc1ncnc2c1c(CO)cn2[C@@H]1O[C@](F)(CO)[C@@H](O)[C@H]1O [Example 17, (2S,3S,4R,5R)-5-(4-amino-5-(hydroxymethyl)-7H-pyrrolo[2,3-d]pyrimidin-7-yl)-2-fluoro-2-(hydroxymethyl)tetrahydrofuran-3,4-diol]	> 10 µM	> 10 µM	> 10 µM	10 to 99 µM	> 99 µM	–	–	–	–	–	–	–	–	–	–	–	–	–
Nc1ncnn2c([C@@H]3O[C@](F)(CO)[C@@H](O)[C@H]3O)cnc12 [Example 19, (2S,3S,4R,5S)-5-(4-aminoimidazo[2,1-f][1,2,4]triazin-7-yl)-2-fluoro-2-(hydroxymethyl)tetrahydrofuran-3,4-diol]	0.1 to 1 µM	1 to 10 µM	0.1 to 1 µM	< 1 µM	1 to 10 µM	> 10 µM	> 10 µM	–	–	1 to 10 µM	1 to 10 µM	> 10 µM	–	–	–	–	–	–
Nc1ncnc2c1ccn2[C@@H]1O[C@@](CO)(CF)[C@@H](O)[C@H]1O [Example 20, (2R,3S,4R,5R)-5-(4-amino-7H-pyrrolo[2,3-d]pyrimidin-7-yl)-2-(fluoromethyl)-2-(hydroxymethyl)tetrahydrofuran-3,4-diol]	> 10 µM	> 10 µM	> 10 µM	> 99 µM	10 to 99 µM	> 10 µM	> 10 µM	–	–	10 to 99 µM	> 99 µM	> 10 µM	–	–	> 10 µM	> 99 µM	–	–
COc1ncnc2c1c(F)cn2[C@@H]1O[C@](F)(CO)[C@@H](O)[C@H]1O [Example 22, (2S,3S,4R,5R)-2-fluoro-5-(5-fluoro-4-methoxy-7H-pyrrolo[2,3-d]pyrimidin-7-yl)-2-(hydroxymethyl)tetrahydrofuran-3,4-diol]	0.1 to 1 µM	1 to 10 µM	–	1 to 10 µM	1 to 10 µM	> 10 µM	> 10 µM	1 to 10 µM	0.1 to 1 µM	10 to 99 µM	10 to 99 µM	> 10 µM	–	–	1 to 10 µM	> 99 µM	–	–
Nc1ncnc2c1ccn2[C@@H]1C[C@](F)(CO)[C@@H](O)[C@H]1O [Example 30, (1S,2S,3S,5R)-5-(4-amino-7H-pyrrolo[2,3-d]pyrimidin-7-yl)-3-fluoro-3-(hydroxymethyl)cyclopentane-1,2-diol]	> 10 µM	> 10 µM	> 10 µM	10 to 99 µM	10 to 99 µM	0.1 to 1 µM	> 10 µM	–	–	1 to 10 µM	10 to 99 µM	> 10 µM	–	–	–	–	–	–
Nc1nc(F)nc2c1ncn2[C@@H]1O[C@](F)(CO)[C@@H](O)[C@H]1O [Example 31, (2S,3S,4R,5R)-5-(6-amino-2-fluoro-9H-purin-9-yl)-2-fluoro-2-(hydroxymethyl)tetrahydrofuran-3,4-diol]	0.1 to 1 µM	1 to 10 µM	0.1 to 1 µM	< 1 µM	1 to 10 µM	> 10 µM	> 10 µM	–	–	< 1 µM	1 to 10 µM	> 10 µM	–	–	–	–	–	–
N#C[C@]1(CO)O[C@@H](n2ccc3c(N)ncnc32)[C@H](O)[C@@H]1O [Example 32, (3S,4R,5R)-5-(4-amino-7H-pyrrolo[2,3-d]pyrimidin-7-yl)-3,4-dihydroxy-2-(hydroxymethyl)tetrahydrofuran-2-carbonitrile]	> 10 µM	> 10 µM	> 10 µM	> 99 µM	> 99 µM	> 10 µM	> 10 µM	–	–	> 99 µM	> 99 µM	> 10 µM	–	–	–	–	–	–
Nc1ncnc2c1c(Cl)cn2[C@@H]1O[C@](F)(CO)[C@@H](O)[C@H]1O [Example 33, (2S,3S,4R,5R)-5-(4-amino-5-chloro-7H-pyrrolo[2,3-d]pyrimidin-7-yl)-2-fluoro-2-(hydroxymethyl)tetrahydrofuran-3,4-diol]	< 0.1 µM	< 0.1 µM	–	< 1 µM	1 to 10 µM	< 0.1 µM	> 10 µM	–	–	10 to 99 µM	1 to 10 µM	> 10 µM	0.1 to 1 µM	> 10 µM	0.1 to 1 µM	10 to 99 µM	< 1 µM	10 to 99 µM
CNc1ncnc2c1c(F)cn2[C@@H]1O[C@](F)(CO)[C@@H](O)[C@H]1O [Example 35, (2S,3S,4R,5R)-2-fluoro-5-(5-fluoro-4-(methylamino)-7H-pyrrolo[2,3-d]pyrimidin-7-yl)-2-(hydroxymethyl)tetrahydrofuran-3,4-diol]	> 10 µM	> 10 µM	–	10 to 99 µM	> 99 µM	> 10 µM	> 10 µM	> 10 µM	1 to 10 µM	10 to 99 µM	10 to 99 µM	–	–	–	–	–	–	–
Nc1nc2c(ncn2[C@H]2C[C@H](O)[C@@](F)(CO)O2)c(=O)[nH]1 [Example 40, 2-amino-9-((2R,4S,5S)-5-fluoro-4-hydroxy-5-(hydroxymethyl)tetrahydrofuran-2-yl)-1,9-dihydro-6H-purin-6-one]	> 10 µM	> 10 µM	–	> 99 µM	> 99 µM	–	–	> 10 µM	> 10 µM	–	–	–	–	–	–	–	–	–
CC(C)OC(=O)[C@H](C)N[P@](=O)(OC[C@@]1(F)O[C@@H](n2ccc3c(N)ncnc32)[C@H](O)[C@@H]1O)Oc1ccccc1 [Example 48, isopropyl ((S)-(((2S,3S,4R,5R)-5-(4-amino-7H-pyrrolo[2,3-d]pyrimidin-7-yl)-2-fluoro-3,4-dihydroxytetrahydrofuran-2-yl)methoxy)(phenoxy)phosphoryl)-L-alaninate]	0.1 to 1 µM	1 to 10 µM	–	10 to 99 µM	10 to 99 µM	–	1 to 10 µM	1 to 10 µM	1 to 10 µM	–	10 to 99 µM	1 to 10 µM	–	–	–	–	–	–
